Results reported in patent US5508311A, “Aliphatic propargylamines as selective MAO-B inhibitors and as neuroprotective agents” (University of Saskatchewan, priority 1993, dated 1996).

What was measured:
monoamine oxidase = experiment: Inhibition of rat liver monoamine oxidase deamination of dopamine (DA, mixed-type MAO A and B substrate) in vitro; type: biochemical; conditions: substrate DA (5 × 10^-4 M), average of at least 3 independent experiments
Procedure: The aliphatic propargylamine inhibitors (from 1×10^-10 M to 1×10^-4 M) were preincubated with the MAO for 20 min. at ambient room temperature and then the residual enzyme activities were determined by addition of the substrates, followed by further incubation at 37° C. for 30 min. The enzymatic reactions were terminated by the addition of citric acid and the aldehyde products were extracted with toluene: ethyl acetate (1:1, v/v) and the radio-activities assessed in a scintillation counter.

MAO-B = biological target: T1, MAO-B (Mus musculus, UniProt Q8BW75); experiment: in vivo; type: in vivo; conditions: mouse, ip
T1 construct: MAO activities in the mouse brain after; from tissue
T1 sequence (Q8BW75 1-520): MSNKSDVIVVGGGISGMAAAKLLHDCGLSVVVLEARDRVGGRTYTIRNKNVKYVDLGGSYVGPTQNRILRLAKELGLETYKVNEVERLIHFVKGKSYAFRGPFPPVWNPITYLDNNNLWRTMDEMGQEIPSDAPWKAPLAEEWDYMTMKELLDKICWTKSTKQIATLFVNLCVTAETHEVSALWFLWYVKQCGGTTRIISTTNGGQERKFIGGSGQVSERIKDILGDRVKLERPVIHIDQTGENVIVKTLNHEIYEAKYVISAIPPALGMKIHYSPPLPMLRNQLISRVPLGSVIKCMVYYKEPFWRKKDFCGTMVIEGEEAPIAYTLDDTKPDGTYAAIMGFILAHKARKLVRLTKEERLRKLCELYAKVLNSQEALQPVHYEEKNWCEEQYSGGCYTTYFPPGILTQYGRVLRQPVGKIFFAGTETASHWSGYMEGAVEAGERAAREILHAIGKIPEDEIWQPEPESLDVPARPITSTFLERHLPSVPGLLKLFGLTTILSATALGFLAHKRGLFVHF
Procedure: Albino Swiss mice were used in this study. The animals were injected intraperitoneally with different doses of the aliphatic propargylamines in 100 μL saline.
0.5, 1, 2, 5, 10, 20, 50, 100 mg/Kg. Striata were dissected from the brai
two hours after i.p. administration of the drugs. MAOA and MAOB activitie
were determined immediately. The values were estimated from doseresponse

dopamine neurons = experiment: Protection of dopamine neurons against MPTP-induced neurotoxicity in the mice brain; type: in vivo, mouse
Description: Three days later, dopamine levels and dopamine uptake site densities (GBR bindings) were estimated.

noradrenaline neurons = experiment: Protection of noradrenaline neurons against DSP-4 induced neurotoxicity in the mouse brain; type: in vivo; conditions: Experiment I, pretreatment 10 mg/Kg i.p., mean ± S.E.
Procedure: The analyses of DSP-4-induced neurotoxic effects were conducted in accordance with […] and Jonsson (Eur. J. Pharmacol. 103 (1984), 269-278), hereby incorporated by reference. Mice were pretreated with M-2-PP (10 mg/Kg) and 2-HxMP (10 mg/Kg) or saline as control via i.p. administration and one hour later challenged with a single i.p. dose of DSP-4 (DSP-4: […] One week after treatment noradrenaline content in the putamen of these mice was analyzed. The results which are shown in Table 5 are mean ± S.E. of five animals in each group.

C#CCN(C)C(C)CCC.Cl.O=C(O)C(=O)O (centres unmarked) [Example M-2-PP, N-(2-Pentyl)-N-methylpropargylamine hydrochloride and oxalate]
IC50 (monoamine oxidase): 6 µM
MAO-B ID50 (mg/Kg) / IC50 (1 × 10^-6 M) (MAO-B; in vivo): 2.5
inhibition of brain MAO-B activity in vivo (in words) (MAO-B; in vivo): more potent than the longer chain analogs at inhibiting brain MAO-B activity
Ratio MAO-A/MAO-B (MAO-B; in vivo, 120 min): 50
ED50 (MAO-B; 2 h, read-out: PE ID50): 0.5 mg/kg
Dopamine (dopamine neurons; 0.5 mg/Kg + MPTP): 8.3 μg/gm
Dopamine binding site (dopamine neurons; 0.5 mg/Kg + MPTP): 312 pmol/mg
Dopamine (dopamine neurons; 2.5 mg/Kg + MPTP): 8.9 μg/gm
Dopamine binding site (dopamine neurons; 2.5 mg/Kg + MPTP): 306 pmol/mg
Noradrenaline in putamen (noradrenaline neurons; DSP-4 50 mg/Kg, p < 0.01 vs DSP-4 (DSP-4 alone 33)): 90 ± 0.07%
Noradrenaline in putamen (noradrenaline neurons; saline, no DSP-4): 111 ± 0.09%
